Results published in ChEMBL document CHEMBL5137113, “Identification of Nitric Oxide-Donating Ripasudil Derivatives with Intraocular Pressure Lowering and Retinal Ganglion Cell Protection Activities” (J Med Chem, 2022).
pIC50: −log10 of the molar value. Calls of active or inactive are those of the source.

What was measured:
[1] = target: Rho-associated protein kinase 1 (Homo sapiens, UniProt Q13464); test: Inhibition of ROCK1 (unknown origin) using biotin as substrate incubated for 1 hr by HTRF assay
Rho-associated protein kinase 1, sequence (Q13464 whole entry): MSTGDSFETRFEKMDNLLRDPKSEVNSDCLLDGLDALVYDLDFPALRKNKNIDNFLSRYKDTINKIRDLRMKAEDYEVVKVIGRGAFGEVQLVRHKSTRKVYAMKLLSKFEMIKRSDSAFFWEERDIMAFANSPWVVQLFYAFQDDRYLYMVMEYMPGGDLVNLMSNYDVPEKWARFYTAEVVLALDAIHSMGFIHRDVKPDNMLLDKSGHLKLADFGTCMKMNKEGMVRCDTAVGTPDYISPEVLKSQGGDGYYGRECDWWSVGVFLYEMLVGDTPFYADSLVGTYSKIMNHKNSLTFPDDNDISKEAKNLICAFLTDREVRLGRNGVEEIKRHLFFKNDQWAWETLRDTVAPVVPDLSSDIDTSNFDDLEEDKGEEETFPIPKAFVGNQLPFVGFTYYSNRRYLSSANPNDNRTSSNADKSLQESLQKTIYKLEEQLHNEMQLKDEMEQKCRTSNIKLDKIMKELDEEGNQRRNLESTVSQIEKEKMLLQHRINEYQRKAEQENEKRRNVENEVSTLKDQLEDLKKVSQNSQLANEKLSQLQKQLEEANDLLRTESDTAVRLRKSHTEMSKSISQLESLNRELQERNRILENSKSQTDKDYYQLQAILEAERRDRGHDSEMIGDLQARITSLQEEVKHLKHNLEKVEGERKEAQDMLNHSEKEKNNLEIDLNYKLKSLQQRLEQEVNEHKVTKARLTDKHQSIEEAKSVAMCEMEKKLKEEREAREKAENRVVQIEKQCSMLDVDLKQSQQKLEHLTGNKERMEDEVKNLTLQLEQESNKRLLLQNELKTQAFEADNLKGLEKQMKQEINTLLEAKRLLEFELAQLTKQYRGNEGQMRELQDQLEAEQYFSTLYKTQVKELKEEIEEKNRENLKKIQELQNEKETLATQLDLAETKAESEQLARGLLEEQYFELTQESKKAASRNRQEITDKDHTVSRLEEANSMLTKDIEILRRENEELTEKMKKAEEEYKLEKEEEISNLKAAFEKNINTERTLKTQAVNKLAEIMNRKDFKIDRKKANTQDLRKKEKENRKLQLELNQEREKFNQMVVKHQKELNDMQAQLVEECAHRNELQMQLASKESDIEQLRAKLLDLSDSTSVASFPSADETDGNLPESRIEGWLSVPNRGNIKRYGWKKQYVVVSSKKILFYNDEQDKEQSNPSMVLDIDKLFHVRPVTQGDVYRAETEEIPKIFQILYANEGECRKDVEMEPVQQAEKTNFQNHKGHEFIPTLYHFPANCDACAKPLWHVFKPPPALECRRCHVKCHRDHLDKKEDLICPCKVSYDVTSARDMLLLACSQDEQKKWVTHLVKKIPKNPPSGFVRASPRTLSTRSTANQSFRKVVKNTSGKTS

HTM [2] = test: Effect of compound on intracellular cGMP concentration in HTM cells assessed as increase in cGMP level at 10 uM incubated for 24 hrs by ELISA; type: functional, cell-based; settings: Homo sapiens
HTM [3] = test: Induction of NO release in HTM cells assessed as increase in fluorescence intensity by DAF-FM DA dye based flow cytometry analysis; type: functional, cell-based; settings: Homo sapiens
HTM [4] = test: Effect on MLC expression in HTM cells assessed as reduction in phosphorylated MLC/MLC ratio at 10 uM incubated for 1 hr by densitometry analysis; type: functional, cell-based; settings: Homo sapiens
HTM [5] = test: Downregulation of phosphorylated MLC expression in HTM cells at 10 uM incubated for 1 hr by Western blotting analysis; type: functional, cell-based; settings: Homo sapiens
HTM [6] = test: Induction of NO release in HTM cells assessed as increase in positive area by DAF-FM DA dye based flow cytometry analysis; type: functional, cell-based; settings: Homo sapiens
[7] = target: Rho-associated protein kinase 2 (Homo sapiens, UniProt O75116); test: Inhibition of ROCK2 (unknown origin) using biotin as substrate incubated for 1 hr by HTRF assay
Rho-associated protein kinase 2, sequence (O75116 whole entry): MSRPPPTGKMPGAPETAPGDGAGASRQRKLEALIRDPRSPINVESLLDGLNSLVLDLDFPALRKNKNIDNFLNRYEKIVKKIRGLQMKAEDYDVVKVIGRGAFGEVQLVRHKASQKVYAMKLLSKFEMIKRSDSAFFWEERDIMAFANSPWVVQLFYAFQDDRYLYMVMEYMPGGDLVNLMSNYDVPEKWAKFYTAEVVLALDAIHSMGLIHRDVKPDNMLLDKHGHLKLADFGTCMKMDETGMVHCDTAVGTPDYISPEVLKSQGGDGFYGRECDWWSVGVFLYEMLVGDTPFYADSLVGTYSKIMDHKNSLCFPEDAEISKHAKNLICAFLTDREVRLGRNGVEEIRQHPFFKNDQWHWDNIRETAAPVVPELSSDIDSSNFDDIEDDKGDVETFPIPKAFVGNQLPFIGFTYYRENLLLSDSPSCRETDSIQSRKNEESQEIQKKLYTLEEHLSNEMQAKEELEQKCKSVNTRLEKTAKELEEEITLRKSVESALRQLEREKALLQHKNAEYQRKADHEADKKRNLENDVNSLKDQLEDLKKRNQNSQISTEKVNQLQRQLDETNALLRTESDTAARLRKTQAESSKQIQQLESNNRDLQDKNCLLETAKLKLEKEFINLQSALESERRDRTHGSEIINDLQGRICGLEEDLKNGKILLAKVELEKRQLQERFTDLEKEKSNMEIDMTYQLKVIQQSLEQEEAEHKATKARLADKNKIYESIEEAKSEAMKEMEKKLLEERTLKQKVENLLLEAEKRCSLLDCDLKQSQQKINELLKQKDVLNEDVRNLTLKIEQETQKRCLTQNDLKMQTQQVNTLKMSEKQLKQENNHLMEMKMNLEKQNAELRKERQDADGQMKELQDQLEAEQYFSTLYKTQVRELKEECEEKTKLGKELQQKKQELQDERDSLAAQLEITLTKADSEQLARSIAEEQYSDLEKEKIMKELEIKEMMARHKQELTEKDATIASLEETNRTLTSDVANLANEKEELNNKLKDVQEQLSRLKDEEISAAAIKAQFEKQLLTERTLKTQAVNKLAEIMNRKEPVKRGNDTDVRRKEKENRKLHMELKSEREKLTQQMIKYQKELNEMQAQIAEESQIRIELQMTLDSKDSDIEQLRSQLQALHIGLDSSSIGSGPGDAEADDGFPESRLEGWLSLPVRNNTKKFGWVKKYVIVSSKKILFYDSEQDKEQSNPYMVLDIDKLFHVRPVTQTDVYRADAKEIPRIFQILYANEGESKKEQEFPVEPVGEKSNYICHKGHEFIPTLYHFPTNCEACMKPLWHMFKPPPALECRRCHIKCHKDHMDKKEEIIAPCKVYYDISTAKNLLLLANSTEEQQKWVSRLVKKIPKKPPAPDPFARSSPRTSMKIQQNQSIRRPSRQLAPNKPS

HTM [8] = test: Induction of reversible F-actin depolymerization in HTM cells assessed as irregular arrangement of fiber bundles at 10 uM incubated for 1 hr and further incubated for 4 hrs in drug free medium by rhodamine phalloidin staining based confocal scanning microscopic analysis; type: cell-based; settings: Homo sapiens
[9] = Ocular toxicity in C57BL/6J mouse assessed as effect on conjunctival hyperemia at 0.07% solution administered via topical instillation and measured at 1 to 4 hrs post instillation in presence of ripasudil; settings: in vivo, topical_or_ocular, time 1-4 hrs, route top
Mus musculus [10] = test: Antiglaucoma activity in microspheres induced chronic ocular hypertension C57BL/6J mouse model assessed as reduction in intraocular pressure at 0.07% solution administered via topical instillation for three times per day and measured at 1 to 6 hrs post instillation in presence of ripasudil by ophthalmotonometer; type: functional, organism-based; settings: route top, time 1-6 hrs
HTM [11] = test: Inhibtion of mitochondrial respiration in HTM cells assessed as oxygen consumption rate by measuring decrease in proton leak at 10 uM incubated for 1 hr by Seahorse XF24 extracellular flux analyzer; type: functional, cell-based; settings: Homo sapiens
HTM [12] = test: Inhibtion of mitochondrial respiration in HTM cells assessed as oxygen consumption rate by measuring decrease in maximal respiration at 10 uM incubated for 1 hr by Seahorse XF24 extracellular flux analyzer; type: functional, cell-based; settings: Homo sapiens
HTM [13] = test: Inhibtion of mitochondrial respiration in HTM cells assessed as oxygen consumption rate by measuring decrease in ATP production at 10 uM incubated for 1 hr by Seahorse XF24 extracellular flux analyzer; type: functional, cell-based; settings: Homo sapiens
HTM [14] = test: Inhibtion of mitochondrial respiration in HTM cells assessed as repression of oxygen consumption rate at 10 uM incubated for 1 hr by Seahorse XF24 extracellular flux analyzer; type: functional, cell-based; settings: Homo sapiens
Mus musculus [15] = test: Antiglaucoma activity in microspheres induced chronic ocular hypertension C57BL/6J mouse model assessed as increase in number of RGCs in retina at 0.26% solution administered via topical instillation and measured after 10 days by immunostaining based confocal microscopic analysis; type: functional, organism-based; settings: route top, time 10.0 day
Mus musculus [16] = test: Antiglaucoma activity in microspheres induced chronic ocular hypertension C57BL/6J mouse model assessed as reduction in intraocular pressure at 0.26% solution administered via topical instillation for three times per day and measured at 1 to 6 hrs post instillation by ophthalmotonometer; type: functional, organism-based; settings: route top, time 1-6 hrs
Mus musculus [17] = test: Antiglaucoma activity in microspheres induced chronic ocular hypertension C57BL/6J mouse model assessed as reduction in contrast sensitivity threshold at 0.26% solution administered via topical instillation and measured after 10 days by optokinetic reflex test; type: functional, organism-based; settings: route top, time 10.0 day
HTM [18] = test: Inhibtion of mitochondrial respiration in HTM cells assessed as oxygen consumption rate by measuring decrease in coupling efficiency at 10 uM incubated for 1 hr by Seahorse XF24 extracellular flux analyzer; type: functional, cell-based; settings: Homo sapiens
Mus musculus [19] = test: Antiglaucoma activity in microspheres induced chronic ocular hypertension C57BL/6J mouse model assessed as increase in visual acuity under maximum contrast condition at 0.26% solution administered via topical instillation and measured after 10 days by optokinetic reflex test; type: functional, organism-based; settings: route top, time 10.0 day
HTM [20] = test: Inhibtion of mitochondrial respiration in HTM cells assessed as oxygen consumption rate by measuring decrease in basal respiration at 10 uM incubated for 1 hr by Seahorse XF24 extracellular flux analyzer; type: functional, cell-based; settings: Homo sapiens
Mus musculus [21] = test: Antiglaucoma activity in microspheres induced chronic ocular hypertension C57BL/6J mouse model assessed as reduction in intraocular pressure at 0.2% solution administered via topical instillation for three times per day and measured at 1 to 6 hrs post instillation by ophthalmotonometer; type: functional, organism-based; settings: route top, time 1-6 hrs
[22] = Ocular toxicity in C57BL/6J mouse assessed as effect on conjunctival hyperemia at 0.2% solution administered via topical instillation and measured at 1 to 4 hrs post instillation; settings: in vivo, topical_or_ocular, time 1-4 hrs, route top
[23] = Ocular toxicity in C57BL/6J mouse assessed as effect on conjunctival hyperemia at 0.26% solution administered via topical instillation and measured at 1 to 4 hrs post instillation; settings: in vivo, topical_or_ocular, time 1-4 hrs, route top
[24] = Ocular toxicity in New Zealand white albino rabbit assessed as effect on ocular irritation at 0.579% solution administered via topical instillation and measured at 1 to 4 hrs post instillation by draize's test; parameters: species or system Oryctolagus cuniculus; settings: in vivo, topical_or_ocular, time 1-4 hrs, route top

| SMILES | pIC50 [1] | Activity (HTM [2]) | Activity (HTM [3]) | Activity (HTM [4]) | Activity (HTM [5]) | Activity (HTM [6]) | pIC50 [7] | Activity (HTM [8]) | Activity (HTM [13]) | Activity (HTM [20]) | also measured |
| --- | --- | --- | --- | --- | --- | --- | --- | --- | --- | --- | --- |
| C[C@H]1CN(C(=O)OCCCCCO[N+](=O)[O-])CCCN1S(=O)(=O)c1cccc2cncc(F)c12 | 7.35 | Active | Active | Active | Active | Active | 7.60 | Active | – | – | – |
| O=[N+]([O-])OCCCCO | – | – | – | – | – | – | – | – | – | – | Activity [9]: Non-Toxic; Activity (Mus musculus [10]): Active |
| C[C@H]1CN(C(=O)OCCCCO[N+](=O)[O-])CCCN1S(=O)(=O)c1cccc2cncc(F)c12 [listing 1 of 2 here] | – | Active | Active | Active | Active | Active | – | Active | Active | Active | Activity (HTM [11]): Active; Activity (HTM [12]): Active; Activity (HTM [14]): Active; Activity (Mus musculus [15]): Active; Activity (Mus musculus [16]): Active; Activity (Mus musculus [17]): Active; Activity (HTM [18]): Active; Activity (Mus musculus [19]): Active |
| C[C@H]1CN(C(=O)OCCCCO[N+](=O)[O-])CCCN1S(=O)(=O)c1cccc2cncc(F)c12 [listing 2 of 2 here] | 7.23 | – | – | – | – | – | 7.32 | – | – | – | – |
| C[C@H]1CN(C(=O)O[C@@H]2CO[C@H]3[C@@H]2OC[C@@H]3O[N+](=O)[O-])CCCN1S(=O)(=O)c1cccc2cncc(F)c12 | 7.27 | Active | Active | Active | Active | Active | 7.71 | Active | – | – | – |
| C[C@H]1CN(C(=O)OCCCO[N+](=O)[O-])CCCN1S(=O)(=O)c1cccc2cncc(F)c12 | 6.98 | Active | Active | Active | Active | Active | 7.60 | Active | – | – | – |
| C[C@H]1CNCCCN1S(=O)(=O)c1cccc2cncc(F)c12.Cl.O.O [RIPASUDIL HYDROCHLORIDE DIHYDRATE] | – | – | – | Active | Active | – | 7.67 | Active | Active | Active | Activity (Mus musculus [21]): Active; Activity [22]: Non-Toxic |
| C[C@H]1CN(C(=O)OCCCCO[N+](=O)[O-])CCCN1S(=O)(=O)c1cccc2cncc(F)c12.Cl | 7.47 | – | – | – | – | – | 7.78 | – | – | – | Activity [23]: Non-Toxic; Activity [24]: Non-Toxic |
| CCCCOC(=O)N1CCCN(S(=O)(=O)c2cccc3cncc(F)c23)[C@@H](C)C1 | – | – | – | – | – | – | – | – | Active | Active | Activity (HTM [12]): Active; Activity (HTM [14]): Active |
| C[C@H]1CN(C(=O)OCCO[N+](=O)[O-])CCCN1S(=O)(=O)c1cccc2cncc(F)c12 | 7.33 | Active | Active | Active | Active | Active | 7.23 | Active | – | – | – |
